Patent publication US10322074B2, “Apparatus and method for preparing cosmeceutical ingredients containing epi-dermal delivery mechanisms” (PPP&C INC., priority 2015, dated 2019)

Experiment: Phase behavior and solubility of lipid in dense CO2 / threshold pressure for precipitation
Assay type: physicochemical
From the text: Prior to liposome or niosome formation, the phase behavior and solubility of the chosen lipid in dense CO2 were investigated to verify the suitability of the lipid for dense gas processing and, in particular LPLTVs processing.
Knowledge of the threshold pressure for precipitation of lipid from solution is also a key factor for design of the LPLTVs process in order to determine the maximum pressure for the technique so that yield is enhanced and loss of lipid in the expansion chamber minimized. The solid state of 1,2 distearoyl-sn-glycero-3-phosphocholine (DSPC) was maintained when the lipid was exposed to CO2 below 350 bar at 50° C. and 150 bar at 70° C. The solubility of DSPC in pure CO2 at 50° C. and pressures up to 280 bar was considered negligible. […] Use of higher pressures or larger amounts of organic solvent are undesirable, thus the results of the solubility study are in agreement with the literature in concluding that effects arising from poor solubility of lipids in dense CO2 are not easily overcome.
In prior art, at 50° C. and 250 bar, DSPC required the addition of 4.8% v/v ethanol as well as the use of a recycling system for homogeneous dissolution of the lipid in CO2. In the current embodiment, the use of the LPLTVs process eliminates the current limitations of dense gas techniques associated with solubilizing lipids using a supercritical fluid and simply utilizes a dense gas as an aerosolization aid. The threshold pressure for the precipitation of DSPC from a 10 mg/mL ethanol solution at 22° C. was 55 bar.
Precipitation was first observed at 58, 55, and 56 bar for the 5, 10, and 20 mg/mL solutions of DSPC and cholesterol (70:30 lipid to cholesterol weight ratio) in ethanol at 22° C., respectively. Therefore it can be seen that cholesterol had negligible effect on the threshold pressure. […] A faster pressurization rate is preferable for the embodiments LPLTVs process in order to minimize the time requirement for each experiment. During this experiment, noticeable expansion only started to occur after 50 bar was reached. […]

In the case of `CCCCCCCCCCCCCCCCCC(=O)OC[C@H](COP(=O)([O-])OCC[N+](C)(C)C)OC(=O)CCCCCCCCCCCCCCCCC` [DSPC, 1,2 distearoyl-sn-glycero-3-phosphocholine], the “threshold pressure for precipitation” value (10 mg/mL ethanol solution, 22° C.) is reported as 55 bar, the “effect of ethanol co-solvent on solubility in CO2” value (5 mol % ethanol, 50° C., 250 bar) is reported as “did not significantly improve” and the “solubility in pure CO2” value (50° C., pressures up to 280 bar) is reported as “negligible”.
